Measurements: US9481712B2, “Peptidomimetics possessing photo-controlled biological activity” (priority 2013, dated 2016)
≈ marks a conversion by molar mass, not a printed value. *1 amine or outer side, *2 acyl side, *3 side chain or, on linkers, in order; H or OH if unused. Where a SMILES comes first, the peptide text is derived from it. Bridges are numbered along the chain shown (N, C = ends). [ ]: non-standard residue; d: D form. X2 = CC12SC(C(=O)NN[*:2])=CC1=C1CCCC1=C1C=C(C(=O)[*:1])SC12C; X1 = Cc1sc(C(=O)NN[*:2])cc1C1=C(c2cc(C(=O)[*:1])sc2C)CCC1; Orn = NCCC[C@H](N)C(=O)O

How the values were obtained:
[1] = tested on: Escherichia coli DSM 1103; format: cell-based
Protocol: (§1) The antimicrobial activities of GS and its analogues were measured using broth microdilution assay using a standard protocol [Daniel Amsterdam (1996). Susceptibility testing of antimicrobials in liquid media. In: Antibiotics in laboratory medicine, Loman, V., ed., 4th ed. Williams and Wilkins, Baltimore, Md., pp. 52-111]. The peptidomimetic compounds were tested against bacteria strains Escherichia coli DSM 1103, Staphylococcus aureus DSM 1104, Staphylococcus epidermidis DSM 1708, and Staphylococcus xylosus DSM 20267. GS analogues in the “closed” form were prepared in advance by RP-HPLC and stored protecting them from light. The corresponding minimal inhibitory concentrations (MIC) are listed in Table 2, where a small MIC value indicates a high antimicrobial activity, and vice versa.

[2] = tested on: Staphylococcus aureus DSM 1104; format: cell-based
Protocol: as §1

[3] = tested on: Staphylococcus epidermidis DSM 1708; format: cell-based
Protocol: as §1

[4] = tested on: Staphylococcus xylosus DSM 20267; format: cell-based
Protocol: as §1

[5] = tested on: erythrocytes; format: cell-based, human; conditions: pH 7.6
Protocol: To test the hemolytic activities of GS and its analogues, conserved human blood samples were obtained from Karlsruhe municipal hospital and washed four times in Tris buffer, pH 7.6, at 4° C. Aliquots of the blood cells were incubated with different concentrations of the peptide/peptidomimetics for 30 min at 37° C. and subsequently centrifuged. The absorption of the supernatant at 540 nm gives the extent of hemolysis, relative to 0% as taken from the peptide-free control and 100% after treatment with Triton X-100 (not to interfere with this analysis, the samples with GS analogues in the “closed” form were back-converted to their “open” forms by 30 min exposure to the visible light). The HC50 values, where 50% of the erythrocytes were lysed, were determined from the concentration dependent curves and are listed in Table 3. Small HC50 values indicate a high hemolytic activity, and vice versa. […] This proves by several independent assays that the biological activities of the photo-switchable GS analogues could be controlled by light.

[6] = photo-conversion from "closed" to "open" form by visible light (RP-HPLC); format: physicochemical
Protocol: The reverse photo-conversion of the peptidomimetic GS-Sw(FP) from the “closed” to the “open” form by visible light was also tested. A solution of peptide in the pink-colored “closed”-form (in a water-acetonitrile mixture, 3:1, 100 μg/ml) was used. The conversion of the peptidomimetic from the “closed”-form to the “open”-form was determined by RP-HPLC (analytical C18 column, linear A:B gradient of 4% B/min, 1.5 ml/min flow rate) after 0.25, 1.5, 5.5, 7.5 min of irradiation by visible light. A bright halogen lamp (250 Watts) was used, and the solutions were placed in 10 cm distance from the light source. The obtained data fitted well to the exponential equation y=[…], where y is a conversion of “closed” form into the “open” form, t is the time of the illumination and r is the half-conversion time. […] The conversion from “closed” to “open” could be achieved to 100%.

[7] = tested on: Staphylococcus xylosus; assay: photo-activation on bacterial lawn (FIG. 5); format: cell-based; conditions: 6 or 8 μg/ml "closed" form converted 60% or 80% by visible light; 37° C. for 18 hours
Description: The compound was applied to the bacterial lawn at different concentrations and then irradiated by visible light. Some geometrical shapes were cut out from a paper covering the entire Petri dish, such that the photo-switchable compound was converted into the “open” form only in those small areas exposed to the light. […] One further experiment aimed at finding these optimal conditions for treatment with the peptidomimetic GS-SwFP is illustrated in FIG. 5.

[8] = 250 W halogen lamp, 10 cm, water-acetonitrile 3:1, 100 μg/ml, from exponential fit

SMILES	minimal inhibitory concentration (MIC) [1]	minimal inhibitory concentration (MIC) [2]	minimal inhibitory concentration (MIC) [3]	minimal inhibitory concentration (MIC) [4]	H50 (50% of hemolysis) [5]	achievable conversion from "closed" to "open" [6]	time of illumination to achieve 60% transformation "closed" to "open" [6, 8]	time of illumination to achieve 80% conversion "closed" to "open" [6, 8]	antimicrobial effect on bacterial lawn after activation to "open" form [7]
CC(C)C[C@@H]1NC(=O)[C@H](CCCN)NC(=O)[C@H](C(C)C)NC(=O)[C@@H]2CCCN2C(=O)[C@@H](Cc2ccccc2)NC(=O)[C@H](CC(C)C)NC(=O)[C@H](CCCN)NC(=O)[C@H](C(C)C)NC(=O)[C@@H]2CCCN2C(=O)[C@@H](Cc2ccccc2)NC1=O [GS, [PVOL^DFPVOL^DF]cyclo, reference compound] (cyclo(L[dF]PV[Orn]L[dF]PV[Orn]))	8 µg/mL (≈ 7.01 µM)	2 µg/mL (≈ 1.75 µM)	2 µg/mL (≈ 1.75 µM)	1 µg/mL (≈ 0.876 µM)	12 µg/mL				
Cc1sc2cc1C1=C(CCC1)c1cc(sc1C)C(=O)N[C@@H](C(C)C)C(=O)N[C@@H](CCCN)C(=O)N[C@@H](CC(C)C)C(=O)N[C@H](Cc1ccccc1)C(=O)N1CCC[C@H]1C(=O)N[C@@H](C(C)C)C(=O)N[C@@H](CCCN)C(=O)N[C@@H](CC(C)C)C(=O)NNC2=O [GS-Sw(FP), cyclo(^DFPVOL-1b-VOL)]						100%	7.5 min	12.5 min	pronounced antimicrobial activity
CC(C)C[C@@H]1NC(=O)[C@H](CCCN)NC(=O)[C@H](C(C)C)NC(=O)[C@@H]2CCCN2C(=O)[C@@H](Cc2ccccc2)NC(=O)[C@H](CC(C)C)NC(=O)[C@H](CCCN)NC(=O)[C@H](C(C)C)NC(=O)C2=CC3=C4CCCC4=C4C=C(SC4(C)C3(C)S2)C(=O)NNC1=O (stereo partly drawn) [GS-Sw(FP), “closed”, cyclo(^DFPVOL-1b-VOL)]	>128 µg/mL	32 µg/mL (≈ 25.8 µM)	64 µg/mL (≈ 51.5 µM)	32 µg/mL (≈ 25.8 µM)	72 µg/mL				
Cc1sc2cc1C1=C(CCC1)c1cc(sc1C)C(=O)N[C@@H](C(C)C)C(=O)N[C@@H](CCCN)C(=O)N[C@@H](CC(C)C)C(=O)N[C@H](Cc1ccccc1)C(=O)N1CCC[C@H]1C(=O)N[C@@H](C(C)C)C(=O)N[C@@H](CCCN)C(=O)N[C@@H](CC(C)C)C(=O)NNC2=O [GS-Sw(FP), “open”, cyclo(^DFPVOL-1b-VOL)]	128 µg/mL (≈ 103 µM)	4 µg/mL (≈ 3.22 µM)	8 µg/mL (≈ 6.44 µM)	8 µg/mL (≈ 6.44 µM)	6.5 µg/mL				
CC(C)C[C@@H]1NC(=O)[C@H](CCCN)NC(=O)[C@H](C(C)C)NC(=O)[C@@H]2CCCN2C(=O)C2=CC3=C4CCCC4=C4C=C(SC4(C)C3(C)S2)C(=O)NNC(=O)[C@H](CCCN)NC(=O)[C@H](C(C)C)NC(=O)[C@@H]2CCCN2C(=O)[C@@H](Cc2ccccc2)NC1=O (stereo partly drawn) [GS-Sw(LF), “closed”, cyclo(^DFPVO-1b-PVOL)] (PV[Orn]L[dF]PV[Orn]; linker N-C via X2)	64 µg/mL (≈ 52.2 µM)	128 µg/mL (≈ 104 µM)	128 µg/mL (≈ 104 µM)	128 µg/mL (≈ 104 µM)	>>128 μg/ml				
Cc1sc2cc1C1=C(CCC1)c1cc(sc1C)C(=O)N1CCC[C@H]1C(=O)N[C@@H](C(C)C)C(=O)N[C@@H](CCCN)C(=O)N[C@@H](CC(C)C)C(=O)N[C@H](Cc1ccccc1)C(=O)N1CCC[C@H]1C(=O)N[C@@H](C(C)C)C(=O)N[C@@H](CCCN)C(=O)NNC2=O [GS-Sw(LF), “open”, cyclo(^DFPVO-1b-PVOL)] (PV[Orn]L[dF]PV[Orn]; linker N-C via X1)	>128 µg/mL	8 µg/mL (≈ 6.53 µM)	16 µg/mL (≈ 13.1 µM)	8 µg/mL (≈ 6.53 µM)	47 µg/mL				
CC(C)C[C@@H]1NC(=O)[C@H](CCCN)NC(=O)[C@H](C(C)C)NC(=O)[C@@H]2CCCN2C(=O)[C@@H](Cc2ccccc2)NC(=O)[C@H](CC(C)C)NC(=O)[C@H](CCCN)NC(=O)C2=CC3=C4CCCC4=C4C=C(SC4(C)C3(C)S2)C(=O)NNC(=O)[C@@H](Cc2ccccc2)NC1=O (stereo partly drawn) [GS-Sw(PV), “closed”, cyclo(^DFPVOL^DF-1b-OL)] ([Orn]L[dF]PV[Orn]L[dF]; linker N-C via X2)	>128 µg/mL	16 µg/mL (≈ 12.4 µM)	32 µg/mL (≈ 24.8 µM)	32 µg/mL (≈ 24.8 µM)	58 µg/mL				
Cc1sc2cc1C1=C(CCC1)c1cc(sc1C)C(=O)N[C@@H](CCCN)C(=O)N[C@@H](CC(C)C)C(=O)N[C@H](Cc1ccccc1)C(=O)N1CCC[C@H]1C(=O)N[C@@H](C(C)C)C(=O)N[C@@H](CCCN)C(=O)N[C@@H](CC(C)C)C(=O)N[C@H](Cc1ccccc1)C(=O)NNC2=O [GS-Sw(PV), “open”, cyclo(^DFPVOL^DF-1b-OL)] ([Orn]L[dF]PV[Orn]L[dF]; linker N-C via X1)	>128 µg/mL	4 µg/mL (≈ 3.1 µM)	4 µg/mL (≈ 3.1 µM)	4 µg/mL (≈ 3.1 µM)	6 µg/mL				
